These results are taken from ChEMBL document CHEMBL1201862, “PubChem BioAssay data set” (2004).

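Each compound was tested at five concentrations against cells in 96-well plates for 48 hours. The concentration for 50% growth inhibition is given as GI50.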 The source made the active and inactive calls. Rule as the data show it: active = GI50 up to about 1.1 µM and inactive = higher. Some results are limits rather than exact numbers.

What all share (assay): NCI anticancer screen, dose series, 48 h
Assay [1] deals with ACHN.
Assay [2] concerns DU-145.
In assay [3] the test system is HL-60.
Assay [4] relates to HOP-62.
The subject of assay [5] is IGROV-1.
Assay [6] has as its system KM12.
Assay [7] has as its system LOX IMVI.
Assay [8] concerns MCF7.
In assay [9] the test system is MDA-MB-231.
In assay [10] the test system is MOLT-4.
Assay [11] concerns NCI-H226.
Assay [12] concerns NCI-H522.
Assay [13] has as its system OVCAR-8.
The subject of assay [14] is PC-3.
The test system of assay [15] is SK-MEL-5.
For assay [16], the system named is SK-OV-3.
In assay [17] the test system is SN12C.
In assay [18] the test system is SW-620.
Assay [19] has as its system U-251.
Assay [20] deals with UO-31.

As to `Cc1cccc2nc3cccc(C(=O)NCCC[N+](C)(CCCNC(=O)c4cccc5nc6cccc(C)c6nc45)Cc4c([N+](=O)[O-])ncn4C)c3nc12`, the GI50 in assay [1] is 0.136 µM (active); in assay [2] it was 0.881 µM (active); in assay [3] it was 0.199 µM (active); in assay [4], 0.993 µM (active); in assay [5], 11.1 µM (inactive); in assay [6], 0.0912 µM (active). In addition, the GI50 in assay [7] was 0.0908 µM (active); in assay [8] it was 0.436 µM (active); in assay [9] it was 38.3 µM (inactive); in assay [10] it was 0.0396 µM (active); in assay [11] it was 0.787 µM (active); in assay [12] it was 2.1 µM (inactive). In addition, the GI50 in assay [13] was 0.0859 µM (active); in assay [14], 1.46 µM (inactive); in [15] it was 1.95 µM (inactive); in assay [16], 44.8 µM (inactive); in assay [17], 0.378 µM (active); in assay [18], 0.143 µM (active). The GI50 in assay [19] was 0.377 µM (active); in assay [20], 0.726 µM (active).
With `CCN(CC)C(=S)/N=C(\SC(=S)N(CC)CC)c1ccccc1`, the GI50 in assay [1] was > 68.2 µM (inactive); in assay [2] it was 27.9 µM (inactive); in assay [3] it was 1.27 µM (inactive); in assay [4] it was 29.9 µM (inactive); in assay [5], 21.4 µM (inactive); in [6] it was 7.96 µM (inactive). Also, the GI50 was 15.1 µM (inactive) in [7]; 3.6 µM (inactive) in assay [8]; 5.65 µM (inactive) in [9]; 18.6 µM (inactive) in assay [10]; 28.5 µM (inactive) in assay [11]; 0.119 µM (active) in [12]. Further, the GI50 in assay [13] was 56 µM (inactive); in assay [14] it was 26.9 µM (inactive); in assay [15] it was 0.569 µM (active); in [16], 47.3 µM (inactive); in [17], 48.6 µM (inactive); in [18], > 66.8 µM (inactive). For the same compound, the figures for the GI50 in [19] and in [20] were 58.5 µM (inactive) and 27 µM (inactive), respectively.
For `N#Cc1c(-c2ccc(Cl)cc2Cl)nc2[nH]nc(S)n2c1=O`, the GI50 in [1], in [2], in [3], in assay [4], in assay [5] and in [6] was > 100 µM (inactive) throughout. The GI50 in assay [7], in assay [8], in assay [9], in assay [10], in [11] and in [12] was > 100 µM (inactive) throughout. Further, the GI50 in [13], in assay [14], in assay [15], in assay [16], in assay [17] and in [18] was > 100 µM (inactive) throughout. In addition, the GI50 in assay [19] and in assay [20] was > 100 µM (inactive) throughout.
Regarding `COC(=O)C1=CN(C2CCCCC2)C2(c3ccccc3)c3ccccc3C(=O)OC(=O)C12` (stereo not given), the GI50 is > 100 µM (inactive) in assay [1]; > 100 µM (inactive) in [2]; 15.2 µM (inactive) in assay [3]; 90.8 µM (inactive) in [4]; > 100 µM (inactive) in assay [5]; > 100 µM (inactive) in assay [6]. The GI50 in assay [7] was 42.3 µM (inactive); in [8], > 100 µM (inactive); in assay [9], 34.7 µM (inactive); in [10], 10.6 µM (inactive); in assay [11] it was > 100 µM (inactive); in assay [12], > 100 µM (inactive). In addition, the GI50 in [13] is > 100 µM (inactive); in [14] it was 71.6 µM (inactive); in assay [15], > 100 µM (inactive); in [16], > 100 µM (inactive); in [17], > 100 µM (inactive); in assay [18] it was > 100 µM (inactive). Also, the GI50 in [19] was 99.3 µM (inactive); in [20] it was > 100 µM (inactive).
Turning to `CC(CCCC1SCC2NC(=O)NC21)C(=O)O` (stereo not given), the GI50 in assay [1], in assay [2], in [3], in [4], in assay [5] and in assay [6] was > 100 µM (inactive) throughout. Besides, the GI50 in assay [7], in assay [8], in assay [9], in assay [10], in [11] and in assay [12] was > 100 µM (inactive) each time. Further, the GI50 in assay [13], in assay [14], in [15], in [16], in [17] and in assay [18] was > 100 µM (inactive) in each case. Moreover, the GI50 in assay [19] and in assay [20] was > 100 µM (inactive) in each case.
